In assay [1] the test system is Escherichia coli D21f2tolC. Briefly: Inhibition of bacterial growth in culture (MIC, spiral gradient endpoint). The following applies: 16 h, read-out: MIC E. coli D21f2tolC. The assay is classed as cell-based. From the text: (§1) Minimum inhibitory concentrations (MICs) for Staphylococcus aureus ATCC 12600, Enterococcus faecalis ATCC 19433, Acinetobacter baumannii ATCC 19606, and Escherichia coli D21f2tolC were quantified using spiral gradient endpoint assays, essentially as described [Wallace, A. and Corkill, J. (1989) Application of the spiral plating method to study antimicrobial action. J. Microbiol. Meths. […] Int. J. Exp. Clin. Chemother. 3, 31-38; Schalkowsky S. (1994) Measures of susceptibility from a spiral gradient of drug concentrations. Adv. Exp. Med. Biol. 349, 107-120]. Assays employed exponential-gradient plates containing 150 mm×4 mm Mueller-Hinton II cation-adjusted agar and 0.4-100 μg/ml of test compound. Plates were prepared using an Autoplate 4000 spiral plater (Spiral Biotech, Inc.). Saturated overnight cultures were swabbed radially onto plates, and plates were incubated for 16 h at 37° C. For each culture, the streak length was measured using a clear plastic template (Spiral Biotech, Inc.), the test-compound concentration at the streak endpoint was calculated using the program SGE (Spiral Biotech, Inc.), and the MIC was defined as the calculated test-compound concentration at the streak endpoint.

Assay [2] relates to Acinetobacter baumannii ATCC 19606. The description is as above. The following applies: for MIC: Acinetobacter baumannii, ATCC19606, Mueller-Hinton II agar, 16 h at 37° C. The assay is classed as cell-based.
Text: as §1

The subject of assay [3] is Enterococcus faecalis ATCC 19433. The description is as above. Particulars: for MIC: Enterococcus faecalis, ATCC19433, Mueller-Hinton II agar, 16 h at 37° C., read-out: MIC E. faecalis 19433. It counts as cell-based.
Text: as §1

In assay [4] the test system is Staphylococcus aureus ATCC 12600. The description is as above. The assay is classed as cell-based. The following applies: for MIC: Staphylococcus aureus, ATCC12600, Mueller-Hinton II agar, 16 h at 37° C., read-out: MIC S. aureus 12600; for inhibition of Staphylococcus aureus compared with Myx B and 7-desmethyl-Myx B: summary of Table 3.
Text: as §1

In assay [5] the target is E. coli RNA polymerase σ^70 holoenzyme (Escherichia coli, UniProt P0A8T7+P0A8V2). The assay is described as follows: Inhibition of Escherichia coli RNA polymerase (fluorescence-detected). It counts as biochemical. Particulars: read-out: IC50 E. coli RNAP. As to the method:
(§2) Fluorescence-detected RNA polymerase assays with E. coli RNA polymerase were performed by a modification of the procedure of Kuhlman et al., 2004 [Kuhlman, P., Duff, H. & Galant, A. (2004) A fluorescence-based assay for multisubunit DNA-dependent RNA polymerases. Anal. Biochem. 324, 183-190]. Reaction mixtures contained (20 μl): 0-100 nM test compound, 75 nM E. coli RNA polymerase σ^70 holoenzyme, 20 nM 384 bp DNA fragment containing the bacteriophage T4 N25 promoter, 100 μM ATP, 100 μM GTP, 100 μM UTP, 100 μM CTP, 50 mM Tris-HCl, pH 8.0, 100 mM KCl, 10 mM MgCl2, 1 mM DTT, 10 μg/ml bovine serum albumin, and 5.5% glycerol. Reaction components other than DNA and NTPs were pre-incubated for 10 min at 37° C. Reactions were carried out by addition of DNA and incubation for 5 min at 37° C., followed by addition of NTPs and incubation for 60 min at 37° C. DNA was removed by addition of 1 μl 5 mM CaCl2 and 2 U DNaseI (Ambion, Inc.), followed by incubation for 90 min at 37° C. RNA was quantified by addition of 100 μl RiboGreen RNA Quantitation Reagent (Invitrogen, Inc.; 1:500 dilution in Tris-HCl, pH 8.0, 1 mM EDTA), followed by incubation for 10 min at 25° C., followed by measurement of fluorescence intensity [excitation wavelength=485 nm and emission wavelength=535 nm; QuantaMaster QM1 spectrofluorometer (PTI, Inc.)].

Another assay addresses S. aureus RNA polymerase (Staphylococcus aureus, UniProt P47768+Q2G0N5). The assay is described as follows: Inhibition of Staphylococcus aureus RNA polymerase (fluorescence-detected). It counts as biochemical.
The target of assay [6] is M. tuberculosis RNA polymerase (Mycobacterium tuberculosis, UniProt P9WGY7+P9WGY9). The assay is described as follows: Inhibition of Mycobacterium tuberculosis RNA polymerase (fluorescence-detected). The assay is classed as biochemical. On the procedure: as §2
Fluorescence-detected RNA polymerase assays with M. tuberculosis RNA polymerase were performed as in Example 17.1, using reaction mixtures containing (20 μl): 0-100 nM test compound, 75 nM M. tuberculosis RNA polymerase core enzyme, 300 nM M. tuberculosis σ^A, 20 nM 384 bp DNA fragment containing the bacteriophage […] N25 promoter, 100 μM ATP, 100 μM GTP, 100 μM UTP, 100 μM CTP, 40 mM Tris-HCl, pH 8.0, 80 mM NaCl, 5 mM MgCl2, 2.5 mM DTT, and 12.7% glycerol.

In a further assay the test system is Staphylococcus aureus. The assay is described as follows: Antibacterial efficacy in mouse model of Staphylococcus aureus systemic infection (peritonitis model). The assay is classed as in vivo, Swiss Webster mice. Particulars: total dose 30 mg/kg iv. On the procedure: Female Swiss Webster mice were experimentally infected by intraperitoneal administration of 5×10^7 colony forming units of Staphylococcus aureus in 10% hog gastric mucin. Test compounds (2-3 mg/ml in vehicle [9-19% dimethyacetamide/8-16% Cremophor EL in water, v/v]), positive controls (2 mg/ml vancomycin in vehicle), and negative controls (vehicle only and saline only), were administered by intravenous injection into a tail vein 1 h and 5 h post-infection (200 μl per injection). Survival was monitored for 12 h post-infection, or for 24, 48, and 72 h post-infection. At the end of the monitoring period, surviving animals were euthanized.

The mark [7] stands for this setting: read-out: IC50 M. tuberculosis RNAP.
The mark [8] stands for this setting: Table 4c, vehicle 9% dimethylacetamide/8% Cremophor EL/83% water.

≈ marks a conversion by molar mass, not a printed value. Like-named read-outs stand apart in the source and are kept apart here.

The values below come from patent publication US9133155B2, “Antibacterial agents: high-potency myxopyronin derivatives” (Rutgers, The State University of New Jersey, priority 2010, dated 2015).

Sequence of S. aureus RNA polymerase (P0A0J0 whole entry): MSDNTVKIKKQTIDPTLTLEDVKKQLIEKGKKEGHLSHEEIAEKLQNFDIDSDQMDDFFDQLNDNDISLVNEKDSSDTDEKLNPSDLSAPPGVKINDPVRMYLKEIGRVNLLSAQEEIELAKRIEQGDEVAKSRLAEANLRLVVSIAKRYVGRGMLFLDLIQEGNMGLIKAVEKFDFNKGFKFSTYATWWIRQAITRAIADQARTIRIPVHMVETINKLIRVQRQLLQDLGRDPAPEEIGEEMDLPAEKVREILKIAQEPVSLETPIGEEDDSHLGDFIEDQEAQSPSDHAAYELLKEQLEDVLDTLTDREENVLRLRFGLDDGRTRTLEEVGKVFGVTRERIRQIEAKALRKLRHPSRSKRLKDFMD
Sequence of S. aureus RNA polymerase (Q2G0N5 whole entry): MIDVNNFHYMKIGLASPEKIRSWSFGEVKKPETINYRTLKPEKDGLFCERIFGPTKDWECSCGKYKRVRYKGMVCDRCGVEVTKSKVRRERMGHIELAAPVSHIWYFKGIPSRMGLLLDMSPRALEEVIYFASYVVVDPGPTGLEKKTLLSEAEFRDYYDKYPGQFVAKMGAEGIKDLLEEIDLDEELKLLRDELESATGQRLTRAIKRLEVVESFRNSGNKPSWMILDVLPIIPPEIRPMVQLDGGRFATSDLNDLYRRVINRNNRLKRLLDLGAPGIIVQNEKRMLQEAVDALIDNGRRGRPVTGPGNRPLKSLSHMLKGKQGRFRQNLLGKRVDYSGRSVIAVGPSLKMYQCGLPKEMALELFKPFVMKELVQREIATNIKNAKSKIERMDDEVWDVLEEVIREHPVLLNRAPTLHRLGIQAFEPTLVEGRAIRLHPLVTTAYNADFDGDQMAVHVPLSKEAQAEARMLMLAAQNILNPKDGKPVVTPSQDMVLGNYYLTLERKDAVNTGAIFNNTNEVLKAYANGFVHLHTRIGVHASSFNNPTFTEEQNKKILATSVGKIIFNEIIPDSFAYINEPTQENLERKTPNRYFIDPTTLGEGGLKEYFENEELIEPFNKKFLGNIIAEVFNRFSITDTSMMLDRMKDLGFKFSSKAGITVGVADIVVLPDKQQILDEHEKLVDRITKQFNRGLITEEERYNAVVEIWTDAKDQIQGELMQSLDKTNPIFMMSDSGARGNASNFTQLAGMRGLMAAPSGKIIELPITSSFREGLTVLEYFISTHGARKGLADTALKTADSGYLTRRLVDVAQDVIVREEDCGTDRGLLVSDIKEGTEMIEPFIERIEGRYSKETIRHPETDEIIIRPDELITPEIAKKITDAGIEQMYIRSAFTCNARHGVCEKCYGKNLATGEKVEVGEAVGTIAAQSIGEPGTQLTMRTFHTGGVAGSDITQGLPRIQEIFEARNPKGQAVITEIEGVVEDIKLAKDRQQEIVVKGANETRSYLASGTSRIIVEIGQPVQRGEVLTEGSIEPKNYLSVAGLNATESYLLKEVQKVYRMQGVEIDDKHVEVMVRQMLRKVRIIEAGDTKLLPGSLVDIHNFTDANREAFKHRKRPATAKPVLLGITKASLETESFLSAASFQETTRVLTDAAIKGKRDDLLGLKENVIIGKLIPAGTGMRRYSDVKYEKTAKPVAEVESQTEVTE
Sequence of S. aureus RNA polymerase (Q2FW32 whole entry, further chain): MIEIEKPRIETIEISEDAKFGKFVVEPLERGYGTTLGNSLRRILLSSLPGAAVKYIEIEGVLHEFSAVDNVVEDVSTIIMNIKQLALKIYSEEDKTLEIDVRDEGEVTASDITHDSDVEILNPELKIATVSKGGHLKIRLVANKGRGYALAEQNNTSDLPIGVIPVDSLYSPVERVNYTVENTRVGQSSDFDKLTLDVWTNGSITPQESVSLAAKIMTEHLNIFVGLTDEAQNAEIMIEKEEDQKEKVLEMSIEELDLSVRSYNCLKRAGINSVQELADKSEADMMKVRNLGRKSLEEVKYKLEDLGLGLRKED
Sequence of S. aureus RNA polymerase (P47768 whole entry): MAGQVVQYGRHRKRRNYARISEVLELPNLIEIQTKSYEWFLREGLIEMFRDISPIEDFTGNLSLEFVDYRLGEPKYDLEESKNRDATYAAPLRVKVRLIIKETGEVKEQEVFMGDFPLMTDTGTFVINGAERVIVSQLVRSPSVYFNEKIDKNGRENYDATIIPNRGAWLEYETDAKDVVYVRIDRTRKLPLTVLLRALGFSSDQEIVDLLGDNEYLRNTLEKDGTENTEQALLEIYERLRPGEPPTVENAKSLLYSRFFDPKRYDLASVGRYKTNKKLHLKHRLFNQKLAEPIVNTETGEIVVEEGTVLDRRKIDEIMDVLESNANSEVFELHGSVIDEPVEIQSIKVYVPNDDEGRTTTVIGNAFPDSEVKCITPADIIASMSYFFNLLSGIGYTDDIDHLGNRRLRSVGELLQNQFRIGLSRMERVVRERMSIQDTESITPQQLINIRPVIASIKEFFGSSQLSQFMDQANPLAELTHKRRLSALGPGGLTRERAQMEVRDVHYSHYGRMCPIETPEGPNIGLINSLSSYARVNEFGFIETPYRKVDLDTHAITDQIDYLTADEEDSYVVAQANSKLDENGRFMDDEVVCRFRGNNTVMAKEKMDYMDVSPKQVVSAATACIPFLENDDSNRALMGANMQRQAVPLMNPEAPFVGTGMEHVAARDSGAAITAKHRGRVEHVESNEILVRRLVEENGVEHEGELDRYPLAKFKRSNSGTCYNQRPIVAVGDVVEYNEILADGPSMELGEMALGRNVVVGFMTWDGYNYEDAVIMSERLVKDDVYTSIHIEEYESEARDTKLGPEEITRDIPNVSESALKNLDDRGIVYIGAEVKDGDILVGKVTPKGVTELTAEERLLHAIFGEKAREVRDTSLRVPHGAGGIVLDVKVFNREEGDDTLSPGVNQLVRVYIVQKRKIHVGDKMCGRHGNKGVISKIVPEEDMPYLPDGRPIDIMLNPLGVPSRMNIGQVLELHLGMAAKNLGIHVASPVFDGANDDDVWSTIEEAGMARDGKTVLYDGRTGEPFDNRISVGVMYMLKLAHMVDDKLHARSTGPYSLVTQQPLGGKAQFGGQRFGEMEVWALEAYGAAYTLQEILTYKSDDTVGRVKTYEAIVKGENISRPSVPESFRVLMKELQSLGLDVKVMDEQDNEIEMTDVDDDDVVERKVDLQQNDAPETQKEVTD

For orientation: MIC means the smallest concentration in the dilution series that meets the test's criterion for growth inhibition. One may read the IC50 as the concentration that gives 50% inhibition. Take `CCCCCCCC/C=C/C=C(\C)C(=O)c1c(O)cc([C@H](C)CC/C=C/NC(=O)OC)oc1=O` (racemic) [compound 4, methyl ((E)-5-(4-hydroxy-3-((2E,4E)-2-methyltrideca-2,4-dienoyl)-2-oxo-2H-pyran-6-yl)hex-1-enyl)carbamate]: the MIC in assay [1] is less than 0.18 µg/mL; in assay [2], 3.1 µg/mL (≈ 6.55 µM); in assay [3], greater than 40 µg/mL; in assay [4] it was 9.4 µg/mL (≈ 19.8 µM). For the same compound, the IC50 in assay [5] stood at 0.0046 µM; at S. aureus RNA polymerase (read-out: IC50 S. aureus RNAP), 0.0083 µM; in assay [6] (setting [7]), 0.32 µM.
For the compound `CCCC/C(C)=C/C=C(\C)C(=O)c1c(O)cc(CCC/C=C/NC(=O)OC)oc1=O` [7-desmethyl-Myx B, Methyl ((E)-5-(3-((2E,4E)-2,5-dimethylnona-2,4-dienoyl)-4-hydroxy-2-oxo-2H-pyran-6-yl)pent-1-en-1-yl)carbamate, reference compound], the MIC in assay [1] is 0.195 µg/mL (≈ 0.467 µM); in assay [2], greater than 40 µg/mL; in assay [3], 25 µg/mL (≈ 59.9 µM); in assay [4] it was 3.1 µg/mL (≈ 7.43 µM). In assay [2] (summary of Table 3), the “inhibition of Acinetobacter baumannii (in words)” value is recorded as “not detectably inhibited”. Moreover, the IC50 came to 0.022 µM in assay [5], 0.14 µM at S. aureus RNA polymerase and 0.081 µM in assay [6].
For the compound `CCCCC/C=C/C=C(\C)C(=O)c1c(O)cc(C(C)CC/C=C/NC(=O)OC)oc1=O` (stereo not drawn) [compound 1, Methyl ((E)-5-(4-hydroxy-3-((2E,4E)-2-methyldeca-2,4-dienoyl)-2-oxo-2H-pyran-6-yl)hex-1-en-1-yl)carbamate], the MIC is 0.3 µg/mL (≈ 0.695 µM) in assay [1], greater than 40 µg/mL in assay [2], greater than 40 µg/mL in assay [3] and 1.4 µg/mL (≈ 3.24 µM) in assay [4]. In addition, the IC50 in assay [5] was 0.012 µM; at S. aureus RNA polymerase (read-out: IC50 S. aureus RNAP), 0.052 µM; in assay [6] (setting [7]), 0.085 µM.
As to `CCCCCC/C=C/C=C(\C)C(=O)c1c(O)cc(C(C)CC/C=C/NC(=O)OC)oc1=O` (stereo not drawn) [compound 2, Methyl ((E)-5-(4-hydroxy-3-((2E,4E)-2-methylundeca-2,4-dienoyl)-2-oxo-2H-pyran-6-yl)hex-1-en-1-yl)carbamate], the MIC is 0.23 µg/mL (≈ 0.516 µM) in assay [1], 25 µg/mL (≈ 56.1 µM) in assay [2], greater than 40 µg/mL in assay [3] and 1.4 µg/mL (≈ 3.14 µM) in assay [4]. Besides, the IC50 came out at 0.011 µM in assay [5], 0.023 µM on S. aureus RNA polymerase (read-out: IC50 S. aureus RNAP) and 0.07 µM in assay [6] (setting [7]).
As for `CCCCCCC/C=C/C=C(\C)C(=O)c1c(O)cc(C(C)CC/C=C/NC(=O)OC)oc1=O` (stereo not drawn) [compound 3, Methyl ((E)-5-(4-hydroxy-3-((2E,4E)-2-methyldodeca-2,4-dienoyl)-2-oxo-2H-pyran-6-yl)hex-1-en-1-yl)carbamate], the MIC is less than 0.18 µg/mL in assay [1], 5.6 µg/mL (≈ 12.2 µM) in assay [2], greater than 40 µg/mL in assay [3] and 2.4 µg/mL (≈ 5.22 µM) in assay [4]. Besides, the figures for the IC50 (in assay [5]; at S. aureus RNA polymerase (read-out: IC50 S. aureus RNAP); in assay [6] (setting [7])) were 0.0068 µM, 0.017 µM and 0.27 µM, respectively.
With `CCCCCC/C(C)=C/C=C(\C)C(=O)c1c(O)cc(CCC/C=C/NC(=O)OC)oc1=O` [compound 6, Methyl ((E)-5-(3-((2E,4E)-2,5-dimethylundeca-2,4-dienoyl)-4-hydroxy-2-oxo-2H-pyran-6-yl)pent-1-en-1-yl)carbamate], the MIC in assay [1] came to 0.076 µg/mL (≈ 0.171 µM); in assay [2], 5.5 µg/mL (≈ 12.3 µM); in assay [3], 13 µg/mL (≈ 29.2 µM); in assay [4], 0.45 µg/mL (≈ 1.01 µM). In assay [4], the “inhibition of Staphylococcus aureus compared with Myx B and 7-desmethyl-Myx B” value was “more potently than Myx B and 7-desmethyl-Myx B”. The figures for the IC50 (in assay [5]; on S. aureus RNA polymerase (read-out: IC50 S. aureus RNAP); in assay [6] (setting [7])) were 0.0039 µM, 0.012 µM and 0.047 µM, respectively.
As to `CCCCCC/C(C)=C/C=C(\C)C(=O)c1c(O)cc(CCC/C=C/NC(=O)OCC)oc1=O` [compound 7, Ethyl ((E)-5-(3-((2E,4E)-2,5-dimethylundeca-2,4-dienoyl)-4-hydroxy-2-oxo-2H-pyran-6-yl)pent-1-en-1-yl)carbamate], the MIC in assay [1] was 0.37 µg/mL (≈ 0.805 µM); in assay [2], greater than 40 µg/mL; in assay [3], greater than 40 µg/mL; in assay [4], 12 µg/mL (≈ 26.1 µM). Besides, the IC50 in assay [5] is 0.063 µM; at S. aureus RNA polymerase (read-out: IC50 S. aureus RNAP) it was 0.093 µM; in assay [6] (setting [7]), 0.45 µM.
With `CCCCCC/C(C)=C/C=C(\C)C(=O)c1c(O)cc(C(C)CC/C=C/NC(=O)OC)oc1=O` (stereo not drawn) [compound 9, Methyl ((E)-5-(3-((2E,4E)-2,5-dimethylundeca-2,4-dienoyl)-4-hydroxy-2-oxo-2H-pyran-6-yl)hex-1-en-1-yl)carbamate], the MIC was 0.076 µg/mL (≈ 0.165 µM) in assay [1], 5.5 µg/mL (≈ 12 µM) in assay [2], 6.4 µg/mL (≈ 13.9 µM) in assay [3] and 0.34 µg/mL (≈ 0.74 µM) in assay [4]. For the same compound, the “inhibition of Enterococcus faecalis compared with Myx B and 7-desmethyl-Myx B” value in assay [3] (summary of Table 3) is “more potently than Myx B and 7-desmethyl-Myx B”. Also, the “inhibition of Staphylococcus aureus compared with Myx B and 7-desmethyl-Myx B” value in assay [4] was “more potently than Myx B and 7-desmethyl-Myx B”. In addition, the figures for the IC50 (in assay [5]; at S. aureus RNA polymerase (read-out: IC50 S. aureus RNAP); in assay [6] (setting [7])) were 0.0047 µM, 0.013 µM and 0.036 µM, respectively.
As for `CCCCC/C(C)=C\C=C(/C)C(=O)c1c(O)cc(CCC/C=C/NC(=O)OC)oc1=O` [compound 10, Methyl ((E)-5-(3-((2E,4Z)-2,5-dimethyldeca-2,4-dienoyl)-4-hydroxy-2-oxo-2H-pyran-6-yl)pent-1-en-1-yl)carbamate], the MIC was 0.39 µg/mL (≈ 0.904 µM) in assay [1], greater than 40 µg/mL in assay [2], greater than 40 µg/mL in assay [3] and 3.3 µg/mL (≈ 7.65 µM) in assay [4]. For the same compound, the IC50 in assay [5] is 0.04 µM; on S. aureus RNA polymerase (read-out: IC50 S. aureus RNAP) it was 0.1 µM; in assay [6] (setting [7]) it was 0.34 µM.
`CN[C@H](CC(C)C)C(=O)N[C@H]1C(=O)N[C@@H](CC(N)=O)C(=O)N[C@H]2C(=O)N[C@H]3C(=O)N[C@H](C(=O)N[C@H](C(=O)O)c4cc(O)cc(O)c4-c4cc3ccc4O)[C@H](O)c3ccc(c(Cl)c3)Oc3cc2cc(c3O[C@@H]2O[C@H](CO)[C@@H](O)[C@H](O)[C@H]2O[C@H]2C[C@](C)(N)[C@H](O)[C@H](C)O2)Oc2ccc(cc2Cl)[C@H]1O` [vancomycin] had a 12-hour survival in the assay on Staphylococcus aureus (Table 4a, 1 h and 5 h post-infection, vehicle 19% dimethylacetamide/8% Cremophor EL/73% water) of 100%. In addition, the 12-hour survival in the assay with Staphylococcus aureus (Table 4b, vehicle 19% dimethylacetamide/16% Cremophor EL/73% water) was found to be 100%. In the assay with Staphylococcus aureus (setting [8]), this compound showed a 24-hour survival of 100%, a 48-hour survival of 100% and a 72-hour survival of 100%.
